Data taken from paper PMC4667271, “Discovery of a Novel Inhibitor of the Protein Tyrosine Phosphatase Shp2” (Scientific Reports, 2015).

Legend:
SHP1 = SHP1 (Homo sapiens, UniProt P29350); test: in vitro PTP assay (pNPP), SHP1; assay type: biochemical
Method: (§1) Plasmids for expression of His-tag fusion proteins of human PTP were constructed in PET-28a by PCR subcloning techniques. The constructions contain only the PTP domain except Full-length Shp2. Full-length Shp2 containing Tyr279-to-Ala mutant was generated by PCR-based mutagenesis. All constructs were verified by DNA sequencing. PTP-His fusion proteins were expressed in Escherichia coli BL21 and lysed in the buffer (50 mM NaH2PO4, 300 mM NaCl, 250 mM imidazole, 1 mM dithiothreitol plus 5% glycerol), purified with Ni-NTA Magnetic Agarose Beads (Qiagen). The His-tag recombinant purification protocol was carried out according to the purification under native conditions of the QIAexpress System.
(§2) The assay was set in wells of 96-well plate with a final volume of 100 μl of reaction mixture containing 10 mM of NaAc-HAc, 1 mM of ethylene diamine tetraacetic acid, 1 mM of DL-dithiothreitol and 2% of dimethyl sulfoxide, pH 5.5. Activity of the enzyme was assayed by incubating recombinant PTP protein or mutant PTP with various concentrations of Fumos in the mixture at 37 °C for 30 min. Absorbance at 405 nm was detected immediately after addition of varied concentrations of substrate, p-nitrophenyl phosphate (pNPP) to each corresponding well.

PTPH1 = PTPH1 (Homo sapiens, UniProt P26045); test: in vitro PTP assay (pNPP), PTPH1; assay type: biochemical
Method: as §1, §2

[1] = target: T1, full-length Shp2 (Shp2 FL) (Homo sapiens, UniProt Q06124); test: in vitro PTP assay (pNPP), full-length Shp2; assay type: biochemical
T1 sequence (Q06124 1-593): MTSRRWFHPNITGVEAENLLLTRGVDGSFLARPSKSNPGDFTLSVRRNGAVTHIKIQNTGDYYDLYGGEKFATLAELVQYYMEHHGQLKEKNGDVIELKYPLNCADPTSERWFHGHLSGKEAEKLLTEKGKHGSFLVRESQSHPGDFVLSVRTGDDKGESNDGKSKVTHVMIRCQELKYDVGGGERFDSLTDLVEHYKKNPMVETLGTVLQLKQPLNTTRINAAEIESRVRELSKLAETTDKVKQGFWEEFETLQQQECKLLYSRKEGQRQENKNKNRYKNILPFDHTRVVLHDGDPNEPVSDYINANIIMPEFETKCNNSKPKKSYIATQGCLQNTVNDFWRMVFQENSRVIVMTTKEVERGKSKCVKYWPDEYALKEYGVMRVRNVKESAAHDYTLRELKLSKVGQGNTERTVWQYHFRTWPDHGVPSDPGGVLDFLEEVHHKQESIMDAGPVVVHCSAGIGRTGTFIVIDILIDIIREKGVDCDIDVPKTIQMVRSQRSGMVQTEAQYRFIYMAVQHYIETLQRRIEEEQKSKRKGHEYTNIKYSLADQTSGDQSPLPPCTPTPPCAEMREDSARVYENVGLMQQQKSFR
Method: as §1, §2

Shp2 = target: T2, Shp2 (Homo sapiens, UniProt Q06124); test: Irreversibility assessment (dilution and excess substrate); assay type: biochemical; conditions: preincubated 30 min, then 40-fold substrate
T2 sequence (Q06124 1-593): T1 sequence (Q06124 1-593)
Method: Recombinant Shp2 was mixed with the inhibitor at a final concentration of 100-fold IC50 or with vehicle control (DMSO) respectively. Sodium orthovanadate was used as a positive control compound. After incubation at room temperature for 30 min, the Enzyme-inhibitor was diluted to one-fold and mixed with 40-fold pNPP ([…]) for enzymatic activity.

[2] = test system: ERK1/2 phosphorylation in HeLa cells; test: EGF-induced ERK1/2 activation, Western blot, HeLa; assay type: cell-based, human; conditions: 10-40 μM for 24 h, EGF 20 ng/ml 5 min
Source text: (§3) After centrifugation, the supernatant was collected.

[3] = test system: ERK1/2 phosphorylation in HEK293T cells; test: EGF-induced ERK1/2 activation, Western blot, HEK293T; assay type: cell-based, human; conditions: 10-40 μM for 24 h, EGF 20 ng/ml 5 min
Source text: as §3

[4] = test system: Gab1-Shp2 association in HEK293T cells; test: Gab1-Shp2 co-immunoprecipitation, HEK293T; assay type: cell-based, human
Method: Figure 3 Fumos inhibits Gab1-Shp2 association. HEK293T cells were serum-starved for 18 h, preincubated with or without Fumos (20 μM 24 h), and then treated with EGF (20 ng/ml, 5 min). (a) Shp2 was immunoprecipitated from cell lysate supernatants. (b) Gab1 was immunoprecipitated from cell lysate supernatants. Immunoprecipitates were analyzed by immunoblotting with antibodies to Gab1, RasGAP, pY and Shp2. (c) Densitometric analysis of p-Gab1/Shp2 ratio in the Western blots. **p = 0.002 < 0.01/F = 37 vs EGF. (d) Densitometric analysis of RasGAP/Gab1 ratio in the Western blots. **p < 0.01/F = 30 vs EGF, one-way ANOVA followed by Tukey’s test. Bars represent mean ± S.E.M. values from three experiments.
Cells were washed with cold PBS twice and lysed in cell lysis buffer for 10 min on ice. Then the lytic cells were centrifugated with 13,000 g for 10 min at 4 °C. The supernatant was transferred to a fresh conical centrifuge tube on ice and added 1 μg of the appropriate control IgG, together with 20 μl of resuspended volume of Protein A/G PLUS-Agarose (Santa Cruz Biotechnology, CA), then incubated at 4 °C for 30 min. The pellet beads were centrifugated at 1,000 g for 5 min at 4 °C. The supernatant with approximately 100–500 μg total cellular protein was incubated with 2 μg primary antibody against Shp2 or Gab1 for 7 h at 4 °C. Then lysates containing protein-antibody complexes were incubated with 20 μl of Protein A/G PLUS-Agarose at 4 °C on a rotating device overnight. Immunoprecipitates were collected by centrifugation at 2,500 rpm and washed for 4 times with 1 ml lysis buffer, then suspended in the loading buffer, boiled, and analyzed by SDS-PAGE.

[5] = test system: Src and Paxillin phosphorylation in MDA-MB-231 cells; test: Src, PLCγ1 and Paxillin phosphorylation, Western blot, MDA-MB-231; assay type: cell-based, human; conditions: 10-40 μM 24 h, EGF
Source text: Figure 6 Fumos affects the phosphorylation of Src and Paxillin. […] DMSO treatment as control. Western blotting analysis for the expression of p-Src(Tyr416) p-Src (Tyr530), Src, p-PLCγ1, PLCγ1, p-Paxillin(Tyr118), p-Paxillin (Tyr31) and Paxillin. (b,c) Densitometric analysis of pSrc530/Src in the Western blots of Hela and MDA-MB-231, respectively. Bars represent mean ± S.E.M. values from three experiments, **p = 0.006 < 0.01/F = 8 vs EGF, one-way ANOVA followed by Tukey’s test.
as §3

Chain of SHP1 (P29350 244-515 limits assumed): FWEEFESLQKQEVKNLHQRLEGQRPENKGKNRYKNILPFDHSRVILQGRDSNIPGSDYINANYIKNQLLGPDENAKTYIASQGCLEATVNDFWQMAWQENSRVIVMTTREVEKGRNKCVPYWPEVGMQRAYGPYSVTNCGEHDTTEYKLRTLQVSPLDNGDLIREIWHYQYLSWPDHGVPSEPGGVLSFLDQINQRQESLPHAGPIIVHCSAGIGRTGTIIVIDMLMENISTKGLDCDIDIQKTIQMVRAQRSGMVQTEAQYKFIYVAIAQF
Chain of PTPH1 (P26045 646-901 limits assumed): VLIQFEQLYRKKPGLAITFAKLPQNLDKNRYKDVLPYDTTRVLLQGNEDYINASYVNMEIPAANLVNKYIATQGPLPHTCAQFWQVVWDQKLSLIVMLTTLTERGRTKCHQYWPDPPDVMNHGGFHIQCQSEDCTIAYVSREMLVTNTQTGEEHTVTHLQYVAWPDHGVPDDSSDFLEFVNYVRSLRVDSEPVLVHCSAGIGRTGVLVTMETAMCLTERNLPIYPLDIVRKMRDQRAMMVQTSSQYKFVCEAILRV

Structure (SMILES): CC[C@@H](C)C[C@@H](C)/C=C(C)/C=C/C=C/C=C(\C)C(=O)c1c(O)c(-c2ccc(O)cc2)cn(O)c1=O [Fumos, Fumosorinone]
- IC50 (SHP1; SHP1 PTP domain): 34.7 ± 0.37 µM
- IC50 selective (SHP1; SHP1 relative to Shp2 PTP domain): ~6
- IC50 (PTPH1; PTPH1 PTP domain): > 100 µM
- IC50 selective (PTPH1; PTPH1 relative to Shp2 PTP domain): >16
- IC50 selective ([1]; Shp2 FL relative to Shp2 PTP domain): 4
- IC50 ([1]; full-length Shp2 (Shp2 FL)): 26.5 ± 0.37 µM
- recovery of Shp2 enzyme activity after dilution and excess substrate (reversibility) (Shp2): recovered
- EGF-induced ERK1/2 phosphorylation [2]: drastically decreased
- EGF-induced ERK1/2 phosphorylation [3]: drastically decreased
- RasGAP coimmunoprecipitated with Gab1 ([4]; EGF-stimulated, Fumos 20 μM 24 h): dramatically increased
- EGF-stimulated Gab1-Shp2 association (Gab1 in Shp2 immunoprecipitates) ([4]; Fumos 20 μM 24 h, EGF 20 ng/ml 5 min): much less Gab1 proteins were found
- Gab1-Shp2 association without EGF ([4]; Fumos alone): induces Gab1-Shp2 association
- tyrosine-phosphorylation of Gab1 ([4]; Fumos alone, no EGF): increased
- Src Tyr416 phosphorylation [5]: dose-dependent downregulation
- phosphorylated Tyr 530 of Src [5]: moderately increased
- phosphorylation of PLCγ1 [5]: decreased
- phosphorylation of Paxillin at Tyr31 [5]: peaked at low concentrations of Fumos and reduced at high concentrations
- phosphorylation of Paxillin at Tyr118 [5]: decreased with the increasing concentrations
